Experimental data taken from PubChem BioAssay AID1963975 (Molecular Pharmacology Branch, DTP, NCI, 2024).

Test system: 624824-186-R-J2-PDC multicell spheroids, viability
Experiment: Anticancer human tumor 624824-186-R-J2-PDC patient-derived colon adenocarcinoma cell line growth inhibition [PI3K]
Conditions: for IC50: curve of first compound; for viability, T/C: stronger effect = lower value
Excerpt: Combinatorial screen of targeted agents with the PI3K inhibitors inavolisib, alpelisib, duvelisib, and copanlisib in multi-cell type tumor spheroids
A high-throughput screen of multi-cell type tumor spheroids was designed to identify active combinations of targeted small molecules and PI3K pathway inhibitors. Complex spheroids include a stromal component modeled by human endothelial cells (HUVEC) and fibroblasts modeled by human mesenchymal stem cells (MSCs). The concentration ranges selected for each drug and investigational agent were based upon clinically achievable concentrations if the clinical Cmax of the agent was known.
Compounds. The drugs and investigational agents: inavolisib (NSC800729), alpelisib (NSC765974), duvelisib (NSC772469), copanlisib (NSC816437), ipatasertib (NSC767898), afuresertib (NSC778305), talazoparib (NSC767125), sapanisertib (NSC764658), selumetinib (NSC741078), tovorafenib (DAY101, NSC766906), vemurafenib (NSC761431), ravoxertinib (NSC781343), sotorasib (NSC818433), MRTX1133 (NSC 836407), abemaciclib (NSC 768073), palbociclib (NSC758247), venetoclax (NSC 766270), SY5609 (NSC837396), enzalutamide (NSC755605), and darolutamide (NSC825331), were obtained from the National Cancer Institute (NCI) Developmental Therapeutics Program Chemical Repository. The FDA-approved anticancer drug set is available from the NCI Developmental Therapeutics Program. […] The stock solutions were prepared in dimethyl sulfoxide (DMSO, Sigma-Aldrich, St. Louis, MO, cat. D2650) at 800-fold the tested concentration and stored at -70 degrees C prior to their use. All drugs and investigational agents were tested over a range starting from a high concentration at or near the clinical Cmax and decreasing in half-log increments. If the clinical Cmax for an agent had not been determined, the highest concentration tested was 10 microM.
Cell Culture. All cells were maintained in an incubator at 37 degrees C and 5% CO2 with 95% humidity. The PDC lines were cultured according to standard operating procedures established by the NCI PDMR (https://pdmr.cancer.gov/sops/default.htm). All PDCs were thawed and cultured in Matrigel-coated flasks prepared with a working solution of 1X Ham's F-12 nutrient mix, without supplementation (Invitrogen, Waltham, MA, cat. 11765054), 100 U/mL penicillin-streptomycin (Invitrogen, cat. 15140122), and 2.5% Matrigel (Corning Inc., Corning, NY, cat. 354248) for the first three passages. The 354836-022-R-J1-PDC, 475296-252-R-J1-PDC, and 997726-040-R-J2-PDC lines were cultured in 6A media, which includes advanced DMEM/F-12 (Thermo Fisher Scientific, cat. 12634028), 10 mM HEPES (Thermo Fisher Scientific, cat. 15630080), 1X GlutaMAX supplement (Thermo Fisher Scientific, cat. 35050061), 0.1 mg/mL primocin (InvivoGen, San Diego, CA, cat. ant-pm-2), 10% defined fetal bovine serum, heat inactivated (HyClone Laboratories Inc., Logan, UT, cat. SH30070.03HI), 50% L-WRN conditioned media (ATCC, cat. CRL-3276), 1.25 mM N-Acetyl-L-cysteine (Sigma-Aldrich, cat. A9165), 10 mM nicotinamide (Sigma-Aldrich, cat. N0636), 1X B-27 supplement (Thermo Fisher Scientific, cat. 17504044), 1X N-2 supplement (Thermo Fisher Scientific, cat. 17502048), and 10 microM Y-27632 dihydrochloride (Tocris Bioscience, Bristol, United Kingdom, cat. 1254). The 624824-186-R-J2-PDC line was cultured in 6C/Colon 1B media, which includes all 6A media components plus 50 ng/mL human EGF recombinant protein (Thermo Fisher Scientific, cat. PHG0311). […]
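Note: spheroids exposed to agents for 7 days before viability read.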
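Throughout, for viability, T/C: 100% = DMSO vehicle treated spheroids.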

CC(=O)c1c(C)c2cnc(Nc3ccc(N4CCNCC4)cn3)nc2n(C2CCCC2)c1=O + CC(Nc1ccc2c(c1)OCCn1cc(N3C(=O)OCC3C(F)F)nc1-2)C(N)=O
IC50 (second compound 0.00316 µM): > 100 nM
IC50 (second compound 0.01 µM): > 100 nM
IC50 (second compound 0.0316 µM): > 100 nM
IC50 (second compound 0.1 µM): > 100 nM
IC50 (second compound 0.316 µM): > 100 nM
IC50 (second compound 1 µM): > 100 nM
viability, T/C (second compound 0.00316 µM, first compound 0.000316 µM): 105%
viability, T/C (second compound 0.00316 µM, first compound 0.001 µM): 80.9%
viability, T/C (second compound 0.00316 µM, first compound 0.00316 µM): 108%
viability, T/C (second compound 0.00316 µM, first compound 0.01 µM): 96.2%
viability, T/C (second compound 0.00316 µM, first compound 0.0316 µM): 82.7%
viability, T/C (second compound 0.00316 µM, first compound 0.1 µM): 89.9%
viability, T/C (second compound 0.01 µM, first compound 0.000316 µM): 114%
viability, T/C (second compound 0.01 µM, first compound 0.001 µM): 92.7%
viability, T/C (second compound 0.01 µM, first compound 0.00316 µM): 106%
viability, T/C (second compound 0.01 µM, first compound 0.01 µM): 101%
viability, T/C (second compound 0.01 µM, first compound 0.0316 µM): 93.7%
viability, T/C (second compound 0.01 µM, first compound 0.1 µM): 91.7%
viability, T/C (second compound 0.0316 µM, first compound 0.000316 µM): 104%
viability, T/C (second compound 0.0316 µM, first compound 0.001 µM): 94.2%
viability, T/C (second compound 0.0316 µM, first compound 0.00316 µM): 113%
viability, T/C (second compound 0.0316 µM, first compound 0.01 µM): 85.2%
viability, T/C (second compound 0.0316 µM, first compound 0.0316 µM): 101%
viability, T/C (second compound 0.0316 µM, first compound 0.1 µM): 102%
viability, T/C (second compound 0.1 µM, first compound 0.000316 µM): 86.7%
viability, T/C (second compound 0.1 µM, first compound 0.001 µM): 101%
viability, T/C (second compound 0.1 µM, first compound 0.00316 µM): 91.2%
viability, T/C (second compound 0.1 µM, first compound 0.01 µM): 75.5%
viability, T/C (second compound 0.1 µM, first compound 0.0316 µM): 80.1%
viability, T/C (second compound 0.1 µM, first compound 0.1 µM): 87.7%
viability, T/C (second compound 0.316 µM, first compound 0.000316 µM): 87.7%
viability, T/C (second compound 0.316 µM, first compound 0.001 µM): 76.6%
viability, T/C (second compound 0.316 µM, first compound 0.00316 µM): 78.8%
viability, T/C (second compound 0.316 µM, first compound 0.01 µM): 85.8%
viability, T/C (second compound 0.316 µM, first compound 0.0316 µM): 87%
viability, T/C (second compound 0.316 µM, first compound 0.1 µM): 113%
viability, T/C (second compound 1 µM, first compound 0.000316 µM): 90%
viability, T/C (second compound 1 µM, first compound 0.001 µM): 85.4%
viability, T/C (second compound 1 µM, first compound 0.00316 µM): 86.5%
viability, T/C (second compound 1 µM, first compound 0.01 µM): 87.3%
viability, T/C (second compound 1 µM, first compound 0.0316 µM): 86.1%
viability, T/C (second compound 1 µM, first compound 0.1 µM): 93.1%
